Laboratory results published in ChEMBL document CHEMBL3137667, “[Drug-induced liver injury; fourteenth updated edition of the bibliographic database of liver injuries and related drugs]” (Gastroenterol Clin Biol, 2004).

Key:
[1] = Highest frequency of acute liver toxicity observed during clinical trials, expressed as a percentage. [column '% AIGUE' in source]; settings: human
[2] = Comments (NB not yet translated). [column 'COMMENTAIRES' in source]; settings: human
[3] = human, serum
[4] = Presence of at least one case with successful reintroduction. [column 'REINT' in source]; settings: human
[5] = Proposed mechanism(s) of liver damage. [column 'MEC' in source]; settings: human
[6] = Highest frequency of moderate liver toxicity observed during clinical trials, expressed as a percentage. [column '% BIOL' in source]; settings: human
[7] = human
[8] = human; remark: listed apart in the source
[9] = human; remark: listed apart in the source
[10] = human; remark: listed apart in the source
[11] = human; remark: listed apart in the source
[12] = human; remark: listed apart in the source
[13] = human; remark: listed apart in the source
[14] = human; remark: listed apart in the source
[15] = Times to onset, minimal and maximal, observed in the indexed observations. [column 'DELAI' in source]; settings: human
[16] = human, serum, 4383 h
[17] = human, serum; remark: listed apart in the source
[18] = human; remark: listed apart in the source
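Wherever Hepatotoxicity (association with vascular disease) is given: count of indexed literature references reporting vascular liver injury in humans, e.g. peliosis hepatitis, hepatic veno-occlusive disease or Budd-Chiari syndrome.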
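Wherever Hepatotoxicity (benign tumour) is given: value is a count of indexed literature references citing a benign tumour confirmed by histopathology.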
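Wherever Hepatotoxicity (choleostasis) is given: human cholestatic liver injury, shown by histopathology or by peak ALT or AST elevation over alkaline phosphatase ratio below 2, value counts indexed literature reports.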
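Wherever Hepatotoxicity (chronic liver disease) is given: chronic liver injury confirmed by histopathology or persistently raised serum aminotransferase activity beyond 6 months, value given as the count of indexed literature references.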
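Wherever Hepatotoxicity (cirrhosis) is given: value is a count of indexed literature references reporting cirrhosis confirmed by histopathology.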
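Wherever Hepatotoxicity (cytolytic) is given: human cytolytic liver injury, shown by histopathology or by a ratio above 5 of peak ALT or AST elevation to alkaline phosphatase elevation, value counts indexed references.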
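Wherever Hepatotoxicity (granulomatous hepatitis) is given: value is a count of indexed literature references reporting granulomatous liver disease confirmed by histopathology.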
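Wherever Hepatotoxicity (malignant tumour) is given: malignant tumour confirmed by histopathology, value gives the count of indexed literature references reporting it.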
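Wherever Hepatotoxicity (severe hepatitis) is given: human clinical data: severe hepatitis, meaning potentially life-threatening liver failure or clinically observed cases, the value counts how many indexed literature references report it.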
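Wherever Hepatotoxicity (steatosis) is given: steatosis confirmed by histopathology, value is the count of indexed references.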

SMILES	Hepatotoxicity (acute) ([1]; Liver) [%]	Hepatotoxicity (comment) [2]	Hepatotoxicity (acute) [3]	Hepatotoxicity (successful reintroduction) [4]	Hepatotoxicity (mechanism) [5]	Hepatotoxicity (moderate) ([6]; Liver) [%]	Hepatotoxicity (malignant tumour) [7]	Hepatotoxicity (granulomatous hepatitis) [8]	Hepatotoxicity (association with vascular disease) [9]	Hepatotoxicity (steatosis) [10]	Hepatotoxicity (choleostasis) [11]	Hepatotoxicity (benign tumour) [12]	Hepatotoxicity (cirrhosis) [13]	Hepatotoxicity (time to onset) [15]	Hepatotoxicity (chronic liver disease) [16]	Hepatotoxicity (moderate) [17]	Hepatotoxicity (cytolytic) [18]	Hepatotoxicity (acute) [1] [%]	Hepatotoxicity (moderate) [6] [%]	Hepatotoxicity (severe hepatitis) [14]	also measured
CC(C)OC(=O)C(C)(C)Oc1ccc(C(=O)c2ccc(Cl)cc2)cc1 [FENOFIBRATE]	2.7	RC/CLOFIBRATE CHOLESTASE_PROLONGEE DUCTOPENIE AC_ANTI-ML/-N	13	yes	Allergic	52.9	0	0	0	0	5	0	1	1 day - 3 years	4	27	11				Hepatotoxicity (severe hepatitis) ([14]; Liver): 0
CN1C(=O)CN=C(c2ccccc2)c2cc(Cl)ccc21 [DIAZEPAM]		AC_ANTI-N/-M #CBP	12	yes	Allergic		0	1	0	0	9	0	0	2 days - 9 years	0	1	3	0	7.1	1	
COc1ccc([C@@H]2Sc3ccccc3N(CCN(C)C)C(=O)[C@@H]2OC(C)=O)cc1 [DILTIAZEM]		RC/AMLODIPINE	11	yes	Allergic		0	2	0	1	5	0	0	1 day - 5 months	0	20	6	2.4	6	1	
Sc1ncnc2nc[nH]c12 [MERCAPTOPURINE ANHYDROUS]	4.9	I/DOXORUBICINE CHOLANGITE	30	yes		53	3		2	0		0	0	2 days - 2 years	0	13					Hepatotoxicity (mechanism) ([5]; Liver): Dose-dependant; Hepatotoxicity (granulomatous hepatitis) ([8]; Liver): 0; Hepatotoxicity (choleostasis) ([11]; Liver): 15; Hepatotoxicity (severe hepatitis) ([14]; Liver): 5; Hepatotoxicity (cytolytic) ([18]; Liver): 15
CN1C(C(=O)Nc2ccccn2)=C(O)c2ccccc2S1(=O)=O [PIROXICAM]		AC_ANTI-N CHOLESTASE_PROLONGEE	19	yes	Allergic, Toxic		0	1	0	0	10	0	0	3 days - 1 year	0	12	13	0.8	73	5	
CCN(CC)CCNC(=O)c1ccc(N)cc1 [PROCAINAMIDE]	0	AC_ANTI-M3	4	yes	Allergic	0	0	4	0	0	4	0	0	3 hours - 3 months	0	1	1				Hepatotoxicity (severe hepatitis) ([14]; Liver): 0
Oc1ncnc2[nH]ncc12 [ALLOPURINOL]		CHOLANGITE RC/METHYLDOPA REACTIVATION_HSV6	47	yes	Allergic		0	13	0	4	12	0	0	6 days - 5 years	0	14	26	0.1	3.1	12	
O=c1[nH]cnc2c1ncn2[C@H]1CC[C@@H](CO)O1 [DIDANOSINE]		REACTIVATION_HVB/HVC I/PARACETAMOL	27	yes	Dose-dependant, Mitochondrial toxicity		0	0	0	20	6	0	1	5 days - 8 years	1	18	21	12.5	38.1	13	
Nc1ccc(S(=O)(=O)c2ccc(N)cc2)cc1 [DAPSONE]	5	DUCTOPENIE	33	yes		20	0		0	0		0	0	1 week - 1.5 years	0	10					Hepatotoxicity (mechanism) ([5]; Liver): Allergic, Dose-dependant; Hepatotoxicity (granulomatous hepatitis) ([8]; Liver): 3; Hepatotoxicity (choleostasis) ([11]; Liver): 13; Hepatotoxicity (severe hepatitis) ([14]; Liver): 6; Hepatotoxicity (cytolytic) ([18]; Liver): 15
